Assay results from patent US20190231666A1, “ANTI-DANDRUFF COMPOSITION” (Conopco, Inc., d/b/a UNILEVER, priority 2016, published 2019).

Key:
MCF7 cells = conditions: 13 μM myricetin vs DMSO vehicle control, FIGS. 2A and 2B; cited from earlier work
[1] = 25° C.; cited from earlier work
[2] = test system: normal human epidermal keratinocytes (HEKa cells); experiment: IL-8 release from keratinocytes stimulated with IL-17, IL-22 and TNFα; assay type: cell-based; conditions: 16 hrs
Experimental: To test the foregoing hypothesis, the inventors devised an in vitro model for the inflammatory conditions prevalent in the skin of subjects with dandruff. The model involves in vitro tissue culture of normal human epidermal keratinocytes (HEKa cells). The cells were exposed to a combination of IL-17, TNFα and IL-22 to stimulate an inflammatory-type response, which response was measured by production of IL-8 by the keratinocytes and also by analysis of their general gene expression profile. Adult proliferating human epidermal karatinocytes (HEKa) (from Thermo Fisher Scientific) used at low passage (p3 or lower). Cells were cultured in keratinocyte maintenance medium KGM Gold (Lonza Group) containing all components of the bullet kit plus 70 μM calcium. For the assay, cells were plated in KGM Gold with all components of the bullet kit except hydrocortisone and gentamycin, supplemented with 70 μM calcium. […] After 16 hrs the cell culture medium was removed and the amount of IL-8 cytokine released from the keratinocyte cells was quantified using a DuoSet IL-8 ELISA kit (R&D Systems Ltd). The keratinocyte cells were lysed in RIPA buffer and the total amount of protein in each sample quantified using a Pierce BCA protein assay kit (Thermofisher Ltd). […] All treatments were run in triplicate and a mean and standard deviation value calculated, the results being illustrated in FIG. 3.

For O=c1c(O)c(-c2cc(O)c(O)c(O)c2)oc2cc(O)cc(O)c12 [Myricetin, myricetin], the “effect on gene expression changes observed in dandruff scalp skin relative to healthy scalp skin” value (MCF7 cells) is given as “reverse some of the gene expression changes”, the solubility in water [1] is given as “about 55 mg/L” and the “inflammatory response to the cytokines (IL-8 release)” value ([2]; 6.5 μg/ml myricetin, IL-17 200 ng/ml, IL-22 200 ng/ml, TNFa 10 ng/ml, p=0.0001) is given as “marked inhibition”. The “production of IL-8 (inflammatory response)” value ([2]; HEKa cells, IL-17, TNFα and IL-22 stimulation, FIG. 3) was “significant reduction”.
